According to patent US20250368649A1, “TETRAHYDROPYRIDOPYRIMIDINE PAN-KRAS INHIBITORS” (Mirati Therapeutics, Inc., priority 2022, published 2025):

Legend:
H358 cells = assay: Inhibition of KRas-mediated phosphorylation of ERK (Cisbio HTRF pERK), H358 cells; type: cell-based; conditions: Homo sapiens; for inhibition at 0.1 µM: NCI-H358, single point at 100 nM, 3 hrs compound incubation; for IC50: NCI-H358, 3 h, 3 hr compound incubation
ASPC1 cells = assay: Inhibition of KRas-mediated phosphorylation of ERK (Cisbio HTRF pERK), ASPC1 cells; type: cell-based; conditions: Homo sapiens, AsPC-1 cells; for IC50: ASPC1, 3 h, 3 hr compound incubation
KRas G12V = KRas G12V (Homo sapiens, UniProt P01116, G12V); assay: biochemical; conditions: Binding to KRas (IC50 nM) G12V, TR-FRET displacement, KRas G12V
KRas G12V, sequence (P01116 1-169 isoform P01116-2 G12V): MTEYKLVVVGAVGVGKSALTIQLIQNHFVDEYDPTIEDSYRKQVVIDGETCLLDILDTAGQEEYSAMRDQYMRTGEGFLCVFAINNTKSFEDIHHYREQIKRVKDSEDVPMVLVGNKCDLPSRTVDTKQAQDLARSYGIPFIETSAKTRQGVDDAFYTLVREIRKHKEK

KRas G12R = KRas G12R (Homo sapiens, UniProt P01116, G12R); assay: biochemical; conditions: Binding to KRas (IC50 nM) G12R, TR-FRET displacement, KRas G12R
KRas G12R, sequence (P01116 1-169 isoform P01116-2 G12R): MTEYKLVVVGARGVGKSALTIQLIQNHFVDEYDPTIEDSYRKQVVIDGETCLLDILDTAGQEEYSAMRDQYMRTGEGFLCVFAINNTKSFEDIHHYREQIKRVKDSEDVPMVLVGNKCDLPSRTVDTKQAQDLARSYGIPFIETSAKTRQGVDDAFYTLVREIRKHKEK

H460 cells = assay: Inhibition of KRas-mediated phosphorylation of ERK (Cisbio HTRF pERK), H460 cells; type: cell-based; conditions: Homo sapiens; for inhibition at 0.1 µM: NCI-H460, single point at 100 nM, 3 hrs compound incubation; for IC50: NCI-H460, 3 h, 3 hr compound incubation
H727 cells = assay: Inhibition of KRas-mediated phosphorylation of ERK (Cisbio HTRF pERK), H727 cells; type: cell-based; conditions: Homo sapiens; for IC50: NCI-H727, 3 h, 3 hr compound incubation
MKN1 cells = assay: Inhibition of KRas-mediated phosphorylation of ERK (Cisbio HTRF pERK), MKN1 cells; type: cell-based; conditions: Homo sapiens
In short: (§1)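 Day 1: 6,000 cells/well plated, RPMI + 10% FBS.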

KRas G12D = KRas G12D (Homo sapiens, UniProt P01116, G12D); assay: biochemical; conditions: Binding to KRas (IC50 nM) G12D, TR-FRET displacement, KRas G12D
KRas G12D, sequence (P01116 1-169 isoform P01116-2 G12D): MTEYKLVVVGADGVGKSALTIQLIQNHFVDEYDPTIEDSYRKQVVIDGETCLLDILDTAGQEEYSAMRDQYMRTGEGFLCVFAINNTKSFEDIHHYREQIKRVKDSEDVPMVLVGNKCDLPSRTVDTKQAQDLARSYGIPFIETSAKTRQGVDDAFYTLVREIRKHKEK

HCT116 cells = assay: Inhibition of KRas-mediated phosphorylation of ERK (Cisbio HTRF pERK), HCT116 cells; type: cell-based; conditions: Homo sapiens; for inhibition at 0.1 µM: HCT-116, single point at 100 nM, 3 hrs compound incubation; for IC50: HCT-116, 3 h, 3 hr compound incubation
PSN1 cells = assay: Inhibition of KRas-mediated phosphorylation of ERK (Cisbio HTRF pERK), PSN1 cells; type: cell-based; conditions: Homo sapiens, PSN1, 3 h
In short: as §1

A549 cells = assay: Inhibition of KRas-mediated phosphorylation of ERK (Cisbio HTRF pERK), A549 cells; type: cell-based; conditions: Homo sapiens; for inhibition at 0.1 µM: single point at 100 nM, 3 hrs compound incubation; for IC50: A549, 3 h, 3 hr compound incubation
[1] = MKN-1, 3 hour compound incubation, Cisbio pERK HTRF
[2] = 3 hour compound incubation, Cisbio pERK HTRF
[3] = MKN-1, 3 hr compound incubation

Row | SMILES | IC50 (ASPC1 cells; Cisbio pERK HTRF) [nM] | IC50 (KRas G12V) [nM] | IC50 (KRas G12R) [nM] | IC50 (H727 cells; Cisbio pERK HTRF) [nM] | IC50 (MKN1 cells; [1]) [nM] | IC50 (KRas G12D) [nM] | IC50 (PSN1 cells; [2]) [nM] | IC50 (H358 cells) [nM] | IC50 (ASPC1 cells) [nM] | IC50 (H460 cells) [nM] | IC50 (H727 cells) [nM] | IC50 (MKN1 cells; [3]) [nM] | IC50 (HCT116 cells) [nM] | IC50 (PSN1 cells; 3 hr compound incubation) [nM] | IC50 (A549 cells) [nM] | IC50 (H460 cells; Cisbio pERK HTRF) [nM] | IC50 (HCT116 cells; Cisbio pERK HTRF) [nM] | IC50 (A549 cells; Cisbio pERK HTRF) [nM] | inhibition at 0.1 µM (H460 cells) [%] | inhibition at 0.1 µM (HCT116 cells) [%] | further results
1 | CCc1c(F)ccc2cc(O)cc(N3CCc4c(nc(OC[C@@]56CCCN5C[C@H](F)C6)nc4N4CCCn5nc(C(=O)NC)c(OC)c5C4)C3)c12 [Example 320, 5-(7-(8-ethyl-7-fluoro-3-hydroxynaphthalen-1-yl)-2-(((2R,7aS)-2-fluorohexahydro-1H-pyrrolizin-7a-yl)methoxy)-5,6,7,8-tetrahydropyrido[3,4-d]pyrimidin-4-yl)-3-methoxy-N-methyl-5,6,7,8-tetrahydro-4H-pyrazolo[1,5-a][1,4]diazepine-2-carboxamide] | 5 | < 2 | < 2 | 6 | 4.2 | < 2 | 1420 |  |  |  |  |  |  |  |  | 41 | 214 | 20 | 56 | 17 | IC50 (H358 cells; Cisbio pERK HTRF): 5 nM; inhibition at 0.1 µM (H358 cells): 103%; inhibition at 0.1 µM (ASPC1 cells; ASPC1, single point at 100 nM, 3 hrs compound incubation): 99%; inhibition at 0.1 µM (H727 cells; NCI-H727, single point at 100 nM, 3 hrs compound incubation): 70%; inhibition at 0.1 µM (A549 cells): 90%
2 | CCc1c(F)ccc2cc(O)cc(N3CCc4c(nc(OCC5(CN(C)C)CC5)nc4N4CC(C)CC(CO)C4)C3)c12 (stereo not shown) [Example 596, 4-(2-((1-((dimethylamino)methyl)cyclopropyl)methoxy)-4-(3-(hydroxymethyl)-5-methylpiperidin-1-yl)-5,8-dihydropyrido[3,4-d]pyrimidin-7(6H)-yl)-5-ethyl-6-fluoronaphthalen-2-ol] | 1920 | 7 | 9 | 2490 | > 10000 | 11 | > 10000 |  |  |  |  |  |  |  |  | 1280 | 3340 | 2670 |  |  | IC50 (H358 cells; Cisbio pERK HTRF): 595 nM
3 | CCc1c(F)ccc2cc(O)cc(N3CCc4c(nc(OC[C@@]56CCCN5C[C@H](F)C6)nc4N4CCCn5nc(C(=O)N6CC7CNC(CO)C7C6)cc5C4)C3)c12 (stereo partly drawn) [Example 607, (5-(7-(8-ethyl-7-fluoro-3-hydroxynaphthalen-1-yl)-2-(((2R,7aS)-2-fluorotetrahydro-1H-pyrrolizin-7a(5H)-yl)methoxy)-5,6,7,8-tetrahydropyrido[3,4-d]pyrimidin-4-yl)-5,6,7,8-tetrahydro-4H-pyrazolo[1,5-a][1,4]diazepin-2-yl)(4-(hydroxymethyl)hexahydropyrrolo[3,4-c]pyrrol-2(1H)-yl)methanone] | 161 | < 2 | < 2 | 1220 | 953 | < 2 | > 10000 |  |  |  |  |  |  |  |  | 3410 | 3580 | 722 |  |  | IC50 (H358 cells; Cisbio pERK HTRF): 229 nM
4 | CCc1c(F)ccc2cc(O)cc(N3CCc4c(nc(OC[C@@]56CCCN5C[C@H](F)C6)nc4N4CCCn5ncc(C(N)=O)c5C4)C3)c12 [Example 634, 5-(7-(8-ethyl-7-fluoro-3-hydroxynaphthalen-1-yl)-2-(((2R,7aS)-2-fluorotetrahydro-1H-pyrrolizin-7a(5H)-yl)methoxy)-5,6,7,8-tetrahydropyrido[3,4-d]pyrimidin-4-yl)-5,6,7,8-tetrahydro-4H-pyrazolo[1,5-a][1,4]diazepine-3-carboxamide] |  | < 2 | < 2 |  |  | < 2 |  | 45 | 102 | 585 | 284 | 103 | 1420 | > 10000 | 346 |  |  |  |  |  | 

More lines, main results first:

Row | IC50 (ASPC1 cells; Cisbio pERK HTRF) [nM] | IC50 (KRas G12V) [nM] | IC50 (KRas G12R) [nM] | IC50 (H727 cells; Cisbio pERK HTRF) [nM] | IC50 (MKN1 cells; [1]) [nM] | IC50 (KRas G12D) [nM] | IC50 (PSN1 cells; [2]) [nM] | IC50 (H358 cells) [nM] | IC50 (ASPC1 cells) [nM] | IC50 (H460 cells) [nM] | IC50 (H727 cells) [nM] | IC50 (MKN1 cells; [3]) [nM] | IC50 (HCT116 cells) [nM] | IC50 (PSN1 cells; 3 hr compound incubation) [nM] | IC50 (A549 cells) [nM] | IC50 (H460 cells; Cisbio pERK HTRF) [nM] | IC50 (HCT116 cells; Cisbio pERK HTRF) [nM] | IC50 (A549 cells; Cisbio pERK HTRF) [nM] | SMILES | inhibition at 0.1 µM (H460 cells) [%] | inhibition at 0.1 µM (HCT116 cells) [%] | further results
5 | 289 | 8 | 7 | 517 | 531 | 3 | > 10000 |  |  |  |  |  |  |  |  |  |  |  | CCc1c(F)ccc2cc(O)cc(N3CCc4c(nc(OC[C@@]56CCCN5C[C@H](F)C6)nc4N4CCCn5nc(CNS(=O)(=O)N(C)C)cc5C4)C3)c12 [Example 336, 7-(8-ethyl-7-fluoro-3-hydroxy-1-naphthyl)-2-(((2R,7aS)-2-fluorotetrahydro-1H-pyrrolizin-7a(5H)-yl)methoxy)-4-(2-((dimethylsulfamoyl)amino)methyl-7,8-dihydro-4H-pyrazolo[1,5-a][1,4]diazepin-5(6H)-yl)-6,8-dihydro-5H-pyrido[3,4-d]pyriimidine] | 1 | -11 | inhibition at 0.1 µM (H358 cells): -26%; inhibition at 0.1 µM (A549 cells): -24%
6 |  | < 2 | < 2 |  |  | < 2 |  | 45 | 29 | 418 | 153 | 81.1 | 1110 | > 10000 | 200 |  |  |  | CCc1c(F)ccc2cc(O)cc(N3CCc4c(nc(OC[C@@]56CCCN5C[C@H](F)C6)nc4N4CCCn5ncc(C(=O)N(C)C)c5C4)C3)c12 [Example 636, 5-(7-(8-ethyl-7-fluoro-3-hydroxynaphthalen-1-yl)-2-(((2R,7aS)-2-fluorotetrahydro-1H-pyrrolizin-7a(5H)-yl)methoxy)-5,6,7,8-tetrahydropyrido[3,4-d]pyrimidin-4-yl)-N,N-dimethyl-5,6,7,8-tetrahydro-4H-pyrazolo[1,5-a][1,4]diazepine-3-carboxamide] |  |  | 
7 |  | < 2 | < 2 |  |  | < 2 |  | 1 | 1 | 12 | 2 | 1.6 | 31 | 1420 | 5 |  |  |  | CCc1c(F)ccc2cc(O)cc(N3CCc4c(nc(OC[C@@]56CCCN5C[C@H](F)C6)nc4N4CCCn5nc(C(=O)N6CC[C@H]7C[C@@H]6CO7)cc5C4)C3)c12 [Example 623, ((1R,5S)-6-oxa-2-azabicyclo[3.2.1]octan-2-yl)(5-(7-(8-ethyl-7-fluoro-3-hydroxynaphthalen-1-yl)-2-(((2R,7aS)-2-fluorotetrahydro-1H-pyrrolizin-7a(5H)-yl)methoxy)-5,6,7,8-tetrahydropyrido[3,4-d]pyrimidin-4-yl)-5,6,7,8-tetrahydro-4H-pyrazolo[1,5-a][1,4]diazepin-2-yl)methanone] |  |  | 
8 | 262 | 3 | 3 | 284 | 216 | < 2 | > 10000 |  |  |  |  |  |  |  |  |  |  | 524 | CCc1c(F)ccc2cc(O)cc(N3CCc4c(nc(OC[C@@]56CCCN5C[C@H](F)C6)nc4N4CCCn5nc(NC(C)=O)cc5C4)C3)c12 [Example 356, N-(5-(7-(8-ethyl-7-fluoro-3-hydroxynaphthalen-1-yl)-2-(((2R,7aS)-2-fluorohexahydro-1H-pyrrolizin-7a-yl)methoxy)-5,6,7,8-tetrahydropyrido[3,4-d]pyrimidin-4-yl)-5,6,7,8-tetrahydro-4H-pyrazolo[1,5-a][1,4]diazepin-2-yl)acetamide] | 28 | -2 | 
9 | 208 | < 2 | < 2 | 128 | 29.3 | 13 | 5700 |  |  |  |  |  |  |  |  | 84 | 273 | 63 | CCc1c(F)ccc2cc(O)cc(N3CCc4c(nc(OC[C@@]56CCCN5C[C@H](F)C6)nc4N4CCCSCC4)C3)c12 [Example 417, 5-ethyl-6-fluoro-4-(2-(((2R,7aS)-2-fluorohexahydro-1H-pyrrolizin-7a-yl)methoxy)-4-(1,4-thiazepan-4-yl)-5,6-dihydropyrido[3,4-d]pyrimidin-7(8H)-yl)naphthalen-2-ol] |  |  | 
